How the values were obtained:
MDA-MB-468 cells = assay: Anti-proliferative effect on MDA-MB-468 cells, IC50 (MTT); assay type: cell-based; conditions: Homo sapiens, MDA-MB-468, 72 h
HepG2 cells = assay: HepG2 cell viability assay (CCK-8); assay type: cell-based, human; conditions: Homo sapiens, HepG2, 72 h
Description: The ability to inhibit the proliferation of HepG2 cells, which are human hepatocellular carcinoma cells, was measured through the in vitro cell viability assay. Cells were cultured at 37° C. in a humidified condition in the presence of 5% CO2 using a culture medium of MEM (Welgene)+10% FBS (Gibco)+1% penicillin/streptomycin (Gibco). […] Cell viability was measured by CCK-8 method using tetrazolium salt, and the ability of the compounds according to the present invention to inhibit cancer cell proliferation was calculated.

Row | SMILES | IC50 (MDA-MB-468 cells) [nM] | IC50 (HepG2 cells) [nM]
1 | CC(C(=O)Nc1ncc(C(F)(F)F)s1)c1cncc(-c2cnc(NC(=O)/C=C/CN3CCOCC3)cn2)c1 (centres unmarked) [Example 74, (E)-4-morpholino-N-(5-(5-(1-oxo-1-((5-(trifluoromethyl)thiazol-2-yl)amino)propan-2-yl)pyridin-3-yl)pyrazin-2-yl)but-2-enamide] | 65 | 
2 | C[C@H](C(=O)Nc1ncc(C(F)(F)F)s1)c1cccc(-c2cnc(NC(=O)/C=C/CN(C)C)cn2)c1 [Example 81, (S,E)-4-(dimethylamino)-N-(5-(3-(1-oxo-1-((5-(trifluoromethyl)thiazol-2-yl)amino)propan-2-yl)phenyl)pyrazin-2-yl)but-2-enamide] | 39 | 11
3 | C=CC(=O)Nc1ccc(-c2cncc(C(C)C(=O)Nc3ncc(C(F)(F)F)s3)c2)cn1 (centres unmarked) [Example 82, N-(5′-(1-oxo-1-((5-(trifluoromethyl)thiazol-2-yl)amino)propan-2-yl)-[3,3′-bipyridin]-6-yl)acrylamide] | 32 | 4
4 | CC(C(=O)Nc1ncc(C(F)(F)F)s1)c1cncc(-c2cnc(NC(=O)/C=C/CN3CC4CC3CO4)cn2)c1 (centres unmarked) [Example 83, (E)-4-(2-oxa-5-azabicyclo[2.2.1]heptan-5-yl)-N-(5-(5-(1-oxo-1-((5-(trifluoromethyl)thiazol-2-yl)amino)propan-2-yl)pyridin-3-yl)pyrazin-2-yl)but-2-enamide] | 21 | 3
5 | C=CC(=O)Nc1ncc(-c2cncc(C(C)C(=O)Nc3ncc(C(F)(F)F)s3)c2)cc1C#N (centres unmarked) [Example 88, N-(5-cyano-5′-(1-oxo-1-((5-(trifluoromethyl)thiazol-2-yl)amino)propan-2-yl)-[3,3′-bipyridin]-6-yl)acrylamide] | 54 | 9
6 | C[C@H](C(=O)Nc1ncc(C(F)(F)F)s1)c1cccc(-c2cnc(NC(=O)/C=C/CN3CCOCC3)cn2)c1 [Example 92, (S,E)-4-morpholino-N-(5-(3-(1-oxo-1-((5-(trifluoromethyl)thiazol-2-yl)amino)propan-2-yl)phenyl)pyrazin-2-yl)but-2-enamide] | 52 | 74
7 | C[C@H](C(=O)Nc1ncc(Cl)s1)c1cccc(-c2cnc(NC(=O)/C=C/CN(C)C)cn2)c1 [Example 93, (S,E)-N-(5-(3-(1-((5-chlorothiazol-2-yl)amino)-1-oxopropan-2-yl)phenyl)pyrazin-2-yl)-4-(dimethylamino)but-2-enamide] | 38 | 21
8 | CC(C(=O)Nc1ncc(C(F)(F)F)s1)c1cncc(-c2ccc(NC(=O)/C=C/CN(C)C)nc2)c1 (centres unmarked) [Example 107, (E)-4-(dimethylamino)-N-(5′-(1-oxo-1-((5-(trifluoromethyl)thiazol-2-yl)amino)propan-2-yl)-[3,3′-bipyridin]-6-yl)but-2-enamide] |  | 3.1
9 | COC[C@@H]1CCCN1C/C=C/C(=O)Nc1cnc(-c2cccc([C@H](C)C(=O)Nc3ncc(C(F)(F)F)s3)c2)cn1 [Example 118, (E)-4-((S)-2-(methoxymethyl)pyrrolidin-1-yl)-N-(5-(3-((S)-1-oxo-1-((5-(trifluoromethyl)thiazol-2-yl)amino)propan-2-yl)phenyl)pyrazin-2-yl)but-2-enamide] | 47 | 
10 | C[C@H](C(=O)Nc1ncc(C(F)(F)F)s1)c1cccc(-c2cnc(NC(=O)/C=C/CN3CCCCC3)cn2)c1 [Example 120, (S,E)-N-(5-(3-(1-oxo-1-((5-(trifluoromethyl)thiazol-2-yl)amino)propan-2-yl)phenyl)pyrazin-2-yl)-4-(piperidin-1-yl)but-2-enamide] | 51 | 
11 | C=CC(=O)Nc1ncc(-c2cccc([C@H](C)C(=O)Nc3ncc(C(F)(F)F)s3)c2)cc1C#N [Example 124, (S)-N-(3-cyano-5-(3-(1-oxo-1-((5-(trifluoromethyl)thiazol-2-yl)amino)propan-2-yl)phenyl)pyridin-2-yl)acrylamide] | 40 | 
